# Experimental data taken from patent US20100055691A1, “SCREENING METHOD FOR THERAPEUTIC AGENT FOR AMYOTROPHIC LATERAL SCLEROSIS” (HISAMITSU PHARMACEUTICAL CO.,IN., priority 2006, published 2010).
# Tests used:
# Format in all cases: cell-based
# [1] = tested on: Tollip and IRAK-1 complex; assay: immunoprecipitation of the interaction between Tollip and IRAK-1; conditions: HEK293 cells transfected with Tollip-Myc-pcDNA3, 100 ng/mL TNF-α for 1 h
# Method: There has been a report that Tollip binds to IRAK-1 in IL-1R/TLR signaling. We examined whether this happened in TNF-α signaling also. The experiment was carried out by the immunoprecipitation method, which can verify binding of proteins. HEK293 cells were transfected with Tollip-Myc-pcDNA3. Then, after 24 h, some of the cells were treated for 1 h with 100 ng/mL of TNF-α while others were not treated. After that, the cells were lysed and immunoprecipitation […] was carried out. For the immunoprecipitation, Chrom PumPure mouse IgG (Jackson Immunoresearch) was used as the control, mouse anti-IRAK-1(F-4)SC-5288 (Santa Cruz) and mouse anti-Myc(9B11)#2276 (Santa Cruz) were used as primary antibodies, and goat anti-mouse SC-2005 (Santa Cruz) was used as the secondary antibody.
# [2] = tested on: NFκB protein in HEK293 cells; assay: western blotting of NFκB protein in cell nucleus and cytoplasm; conditions: 100 ng/mL TNF-α for 1, 2, 4, 8 or 24 h
# Method: Furthermore, the expression level of the NFκB protein in the cell nucleus and the cytoplasm of HEK293 cells treated with 100 ng/mL of TNF-α for 1, 2, 4, 8, or 24 h was examined using western blotting (WB). For this WB, rabbit anti-NFκB p65(C-20) SC-372 (Santa Cruz) was used as the primary antibody and goat anti-rabbit SC-2004 (Santa Cruz) as the secondary antibody.
# [3] = tested on: NFκB activity in HEK293 cells; assay: luciferase assay of induction of NFκB activity by TNF-α
# Method: Firstly, for establishing the experiment system, we screened various treatment times and doses of TNF-α to determine the optimum conditions for induction of NFκB activity by TNF-α. The luciferase assay was used for the screening. To be more specific, firstly, the NFκB gene was introduced upstream of LUC into pELAM1-Luc, which is a luciferase (LUC) reporter vector, and a vector for expressing NFκB/LUC fusion protein was prepared. Next, HEK293 cells were transfected with this expression vector. 24 h after the transfection, the cells were treated with 10 ng/mL of TNF-α for 1, 2, 4, 8, or 24 h. After that, the luciferase assay was carried out by a standard method, and the level of transcription of the NFκB, which was the target gene, was examined. FIG. 9 (A) confirms that highest NFκB activity was induced 1 h after the treatment with TNF-α.
# The level of transcription of NFκB was measured using different concentrations of TNF-α: 10, 100, and 1000 ng/mL, keeping the treatment time constant at 1 h. FIG. 9 (B) confirms that the highest NFκB activity was induced with 100 ng/mL.
# Tollip = assay: cell fractionation and western blotting of the intracellular localization of Tollip; conditions: HEK293 cells transfected with Tollip-Myc-pcDNA3, 100 ng/mL TNF-α up to 48 h
# Method: Firstly, the intracellular localization of alsin and Tollip was examined by cell fractionation and with western blotting. To be more specific, HEK293 cells were transfected with ALS2CR6-FLAG-pIRESpuro2 or Tollip-Myc-pcDNA3 and 24 h later, the cells were lysed and fractionated by a standard method. After that, western blotting (WB) was carried out. In the WB, lamin, which is localized in the cell nucleus only, and tubulin, which is localized in the cytoplasm only, were used as controls; mouse anti-lamin B (101-B7) NA12 (CALBIOCHEM) or mouse anti-tubulin (Ab-2) (clone DM1A) (LABVISION/NEOMARKERS) were used as primary antibodies, and goat anti-mouse SC-2005 (Santa Cruz) was used as the secondary antibody.
# Next, with HEK293 cells transfected with Tollip-Myc-pcDNA3, we examined how the intracellular localization of Tollip changed by TNF-α treatment. Treatment with 100 ng/mL of TNF-α was given up to 48 h and changes in localization of Tollip were checked at different time points.
substance,measurement,setting,value
TNF-α,binding of Tollip and IRAK-1,[1],suppressed
same,time of highest level of NFκB protein in the cell nucleus,[2],1 h
same,treatment time at which highest NFκB activity was induced,"[3]; HEK293 cells, 10 ng/mL TNF-α for 1, 2, 4, 8 or 24 h",1 h
same,concentration at which highest NFκB activity was induced,"[3]; HEK293 cells, 10, 100 and 1000 ng/mL, treatment time 1 h",100 ng/mL
same,expression of Tollip,Tollip,decreased the expression of Tollip
same,intracellular localization of Tollip,Tollip,made Tollip to migrate to the cell nucleus
